Test results reported in US8993637B2 (priority 2013, dated 2015).

Test system: RAW 264.7 macrophages
Test: ROS production assay in LPS-activated macrophages
Type: cell-based, murine
Conditions: NAC 10 mM; 30 min before and during LPS (1 μg/ml) stimulation, 0-4 h
Experimental: ROS production was measured as the relative fluorescence intensity. […] The data are expressed as the mean±SD for three separate experiments. *p<0.05, **p<0.01 compared to the LPS-treated group. RAW-Blue™ cells (Murine macrophages RAW264.7 stably transfected with the NF-κB reporter gene) purchased from InvivoGen (San Diego, Calif.). LPS (from Escherichia coli 0111:B4) and mouse antibodies against phospho-ERK1/2, phospho-JNK1/2, and phospho-p38 (all from Sigma, St. Louis, Mo.). Rabbit antibodies against mouse ERK1, JNK1, and p38, and HRP-labeled second antibodies were purchased from Santa Cruz Biotechnology, and IL-1β, IL-6, and TNF-α ELISA kits from R&D Systems. ROS production assay, NO production assay, NF-κB reporter assay, ELISA, and Western blotting were performed as described previously.

CC(=O)N[C@@H](CS)C(=O)O [NAC, N-acetyl cysteine, reference compound]
LPS-induced increase in ROS production: reduced
